The source of these data is ChEMBL document CHEMBL4028821, “Synthesis and structure-activity relationship study of pyrazolo[3,4-d]pyrimidines as tyrosine kinase RET inhibitors” (Bioorg Med Chem Lett, 2017).

Molecules are shown by their SMILES.

For data set [1], the target named is Proto-oncogene tyrosine-protein kinase receptor Ret (Homo sapiens, UniProt P07949). In words: Inhibition of recombinant RET (unknown origin) using poly (Glu,Tyr) 4:1 substrate after 60 mins by ELISA. Background: An ELISA detects its analyte on a solid surface through an enzyme-linked reagent.
In another data set the test system is BaF3. Kind of data set: Antiproliferative activity against mouse BAF3 cells harboring CCDC6-RET fusion protein after 72 hrs by CCK8 assay. As to conditions: BaF3, 72 h. A general note: Tetrazolium dyes change colour on reduction, which living cells bring about; call rule not given here.
For data set [2], the target named is Proto-oncogene tyrosine-protein kinase receptor Ret (Mus musculus) (UniProt P35546). Kind of data set: Inhibition of RET in mouse BAF3 cells harboring CCDC6-RET fusion protein assessed as suppression of RET phosphorylation after 2 hrs by Western blot method. The class given is cell-based. A general note: In western blotting, separated proteins are transferred to a membrane and probed.

The target is the same in data set [3]. Kind of data set: Inhibition of RET in mouse BAF3 cells harboring CCDC6-RET fusion protein assessed as suppression of AKT phosphorylation after 2 hrs by Western blot method. Type of data set: cell-based.
Data set [4] addresses Vascular endothelial growth factor receptor 2 (Homo sapiens, UniProt P35968). In words: Inhibition of VEGFR2 (unknown origin) at 1 uM.
Data set [5] has as its target Proto-oncogene tyrosine-protein kinase receptor Ret (Mus musculus) (UniProt P35546). Kind of data set: Inhibition of RET in mouse BAF3 cells harboring CCDC6-RET fusion protein assessed as suppression of STAT3 phosphorylation after 2 hrs by Western blot method. The class given is cell-based.
Data set [6] has the same target. In words: Inhibition of RET phosphorylation in mouse BAF3 cells harboring CCDC6-RET fusion protein after 2 hrs by Western blot method. Type of data set: cell-based.

Proto-oncogene tyrosine-protein kinase receptor Ret (Mus musculus), sequence (P35546 whole entry, the tested form may be a part): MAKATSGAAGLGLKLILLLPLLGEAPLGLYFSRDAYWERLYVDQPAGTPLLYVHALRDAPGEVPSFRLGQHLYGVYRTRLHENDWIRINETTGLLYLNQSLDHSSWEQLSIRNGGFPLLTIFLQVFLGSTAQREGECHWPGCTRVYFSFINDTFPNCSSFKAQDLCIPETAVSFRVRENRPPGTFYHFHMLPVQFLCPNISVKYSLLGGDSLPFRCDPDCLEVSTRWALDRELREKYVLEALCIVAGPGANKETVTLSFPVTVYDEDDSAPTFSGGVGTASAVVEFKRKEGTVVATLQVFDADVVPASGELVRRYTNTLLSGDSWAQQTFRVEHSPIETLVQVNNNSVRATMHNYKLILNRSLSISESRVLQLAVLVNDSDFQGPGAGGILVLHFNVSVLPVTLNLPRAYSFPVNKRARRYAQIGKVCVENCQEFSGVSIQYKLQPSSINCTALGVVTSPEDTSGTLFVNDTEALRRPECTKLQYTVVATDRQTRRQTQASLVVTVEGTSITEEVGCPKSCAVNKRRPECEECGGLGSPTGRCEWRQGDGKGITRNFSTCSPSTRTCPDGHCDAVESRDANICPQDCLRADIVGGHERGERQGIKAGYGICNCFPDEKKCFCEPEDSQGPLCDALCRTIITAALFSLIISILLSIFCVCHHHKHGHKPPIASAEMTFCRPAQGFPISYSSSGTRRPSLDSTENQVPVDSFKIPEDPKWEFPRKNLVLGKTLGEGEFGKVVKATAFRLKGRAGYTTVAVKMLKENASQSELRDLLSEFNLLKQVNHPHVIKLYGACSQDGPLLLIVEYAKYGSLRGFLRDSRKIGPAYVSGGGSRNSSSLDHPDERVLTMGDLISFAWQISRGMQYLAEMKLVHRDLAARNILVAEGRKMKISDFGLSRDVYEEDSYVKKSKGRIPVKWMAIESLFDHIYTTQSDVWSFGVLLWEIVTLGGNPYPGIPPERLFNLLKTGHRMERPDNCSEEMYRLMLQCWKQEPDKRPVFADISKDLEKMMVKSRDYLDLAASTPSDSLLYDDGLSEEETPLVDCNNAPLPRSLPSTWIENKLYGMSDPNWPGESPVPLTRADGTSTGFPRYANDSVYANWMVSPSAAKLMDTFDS
Vascular endothelial growth factor receptor 2, sequence (P35968 whole entry, the tested form may be a part): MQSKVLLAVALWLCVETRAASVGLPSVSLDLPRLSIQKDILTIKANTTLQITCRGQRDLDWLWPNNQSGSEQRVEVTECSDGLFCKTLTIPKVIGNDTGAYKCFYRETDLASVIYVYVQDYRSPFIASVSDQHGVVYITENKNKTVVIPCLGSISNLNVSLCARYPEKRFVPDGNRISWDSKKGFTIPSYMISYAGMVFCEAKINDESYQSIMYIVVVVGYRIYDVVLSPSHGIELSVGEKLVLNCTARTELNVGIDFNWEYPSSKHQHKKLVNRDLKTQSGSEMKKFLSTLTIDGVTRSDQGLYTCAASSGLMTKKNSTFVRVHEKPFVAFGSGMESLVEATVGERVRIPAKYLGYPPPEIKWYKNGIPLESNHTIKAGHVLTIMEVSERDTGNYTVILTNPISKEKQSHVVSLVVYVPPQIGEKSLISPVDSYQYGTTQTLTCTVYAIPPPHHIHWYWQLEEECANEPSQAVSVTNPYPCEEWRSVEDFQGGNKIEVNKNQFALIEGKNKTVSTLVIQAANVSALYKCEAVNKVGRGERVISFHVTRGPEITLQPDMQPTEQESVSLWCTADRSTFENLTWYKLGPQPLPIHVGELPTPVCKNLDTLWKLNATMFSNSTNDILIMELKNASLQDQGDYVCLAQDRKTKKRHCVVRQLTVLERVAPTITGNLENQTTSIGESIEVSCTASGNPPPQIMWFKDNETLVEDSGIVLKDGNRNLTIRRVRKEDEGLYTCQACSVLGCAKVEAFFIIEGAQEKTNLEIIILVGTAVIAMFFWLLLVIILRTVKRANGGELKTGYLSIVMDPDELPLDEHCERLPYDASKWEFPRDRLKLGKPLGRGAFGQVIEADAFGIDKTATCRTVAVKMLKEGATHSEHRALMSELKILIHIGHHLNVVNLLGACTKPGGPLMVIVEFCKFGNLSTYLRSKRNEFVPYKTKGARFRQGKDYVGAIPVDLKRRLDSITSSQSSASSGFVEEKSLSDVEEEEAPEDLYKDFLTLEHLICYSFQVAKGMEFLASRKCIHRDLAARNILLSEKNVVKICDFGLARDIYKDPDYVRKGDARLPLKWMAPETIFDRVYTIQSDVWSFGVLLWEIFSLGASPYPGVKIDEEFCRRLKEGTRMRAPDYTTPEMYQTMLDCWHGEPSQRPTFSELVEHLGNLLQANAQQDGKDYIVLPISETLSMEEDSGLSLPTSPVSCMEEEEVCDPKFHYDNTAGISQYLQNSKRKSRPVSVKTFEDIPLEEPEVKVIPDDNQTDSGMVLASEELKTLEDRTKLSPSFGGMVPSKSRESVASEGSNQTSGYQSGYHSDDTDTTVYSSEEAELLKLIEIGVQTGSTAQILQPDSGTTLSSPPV
Proto-oncogene tyrosine-protein kinase receptor Ret, sequence (P07949 whole entry, the tested form may be a part): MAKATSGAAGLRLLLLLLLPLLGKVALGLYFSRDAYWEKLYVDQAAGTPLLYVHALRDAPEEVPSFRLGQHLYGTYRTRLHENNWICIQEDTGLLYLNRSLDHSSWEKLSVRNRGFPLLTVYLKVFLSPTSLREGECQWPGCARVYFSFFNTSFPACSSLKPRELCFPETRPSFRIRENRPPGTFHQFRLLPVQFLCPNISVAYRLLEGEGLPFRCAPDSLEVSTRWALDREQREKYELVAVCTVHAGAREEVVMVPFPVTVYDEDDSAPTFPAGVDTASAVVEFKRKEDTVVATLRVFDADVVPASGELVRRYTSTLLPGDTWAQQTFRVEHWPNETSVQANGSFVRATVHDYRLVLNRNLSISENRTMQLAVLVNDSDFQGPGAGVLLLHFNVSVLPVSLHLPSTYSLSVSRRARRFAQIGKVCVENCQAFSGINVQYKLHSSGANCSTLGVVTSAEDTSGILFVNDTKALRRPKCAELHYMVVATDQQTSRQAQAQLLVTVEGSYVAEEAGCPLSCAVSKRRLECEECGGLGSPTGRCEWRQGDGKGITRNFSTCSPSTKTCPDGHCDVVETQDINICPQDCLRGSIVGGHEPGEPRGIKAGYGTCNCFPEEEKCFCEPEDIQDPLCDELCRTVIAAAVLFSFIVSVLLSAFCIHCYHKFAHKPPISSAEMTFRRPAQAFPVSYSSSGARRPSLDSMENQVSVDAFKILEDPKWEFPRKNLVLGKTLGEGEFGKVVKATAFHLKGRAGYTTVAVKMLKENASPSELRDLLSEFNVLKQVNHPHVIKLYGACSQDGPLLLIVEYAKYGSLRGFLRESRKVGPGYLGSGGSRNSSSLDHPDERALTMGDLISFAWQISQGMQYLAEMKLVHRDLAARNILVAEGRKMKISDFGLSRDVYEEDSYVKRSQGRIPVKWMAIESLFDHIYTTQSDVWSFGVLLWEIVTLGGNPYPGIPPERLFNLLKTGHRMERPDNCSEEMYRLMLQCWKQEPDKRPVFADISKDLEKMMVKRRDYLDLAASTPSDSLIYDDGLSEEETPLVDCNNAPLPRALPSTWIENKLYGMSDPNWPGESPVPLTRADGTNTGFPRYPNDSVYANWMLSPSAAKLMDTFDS

A word on the IC50: it is the concentration needed to halve the response being measured. As to `CC(C)n1nc(C#Cc2ccccc2)c2c(N)ncnc21`, the IC50 in data set [1] was 0.0565 µM; with BaF3, > 1 µM.
The compound `CC(C)n1nc(-c2cc(CO)on2)c2c(N)ncnc21` gave an IC50 in the data set on BaF3 of 0.454 µM.
For `CC(O)c1cc(-c2nn(C(C)C)c3ncnc(N)c23)no1` (centres undefined), the inhibition entry in data set [2], in data set [3], in data set [5] and in data set [6] was “Dose-dependent effect” each time. Further, the “inhibition (INH)” value in data set [4] is “Not Active”. For the same compound, in the data set with BaF3, the IC50 stood at 0.433 µM.
